Measured values from ChEMBL document CHEMBL1201862, “PubChem BioAssay data set” (2004).
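A five-concentration, 48-hour dose response in 96-well plates underlies each endpoint, interpolated linearly between surrounding concentrations. Here, GI50 denotes the concentration required for 50% inhibition of growth.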 Calls of active or inactive are those of the source. Rule as the data show it: active = GI50 up to about 1.1 µM and inactive = higher.

Columns and labels:
Experiment in all cases: growth of human tumour cells (NCI), 48 h
786-0 = test system: 786-0
A498 = test system: A498
A549 = test system: A549
ACHN = test system: ACHN
BT-549 = test system: BT-549
CAKI-1 = test system: CAKI-1
CCRF-CEM = test system: CCRF-CEM
COLO 205 = test system: COLO 205
DU-145 = test system: DU-145
EKVX = test system: EKVX
HCT-116 = test system: HCT-116
HCT-15 = test system: HCT-15
HL-60 = test system: HL-60
HOP-62 = test system: HOP-62
HOP-92 = test system: HOP-92
HT-29 = test system: HT-29
Hs-578T = test system: Hs-578T
IGROV-1 = test system: IGROV-1
K562 = test system: K562
KM12 = test system: KM12
LOX IMVI = test system: LOX IMVI
M14 = test system: M14
MCF7 = test system: MCF7
MDA-MB-231 = test system: MDA-MB-231
MDA-MB-435 = test system: MDA-MB-435
MDA-N = test system: MDA-N
MOLT-4 = test system: MOLT-4
Malme-3M = test system: Malme-3M
NCI-H226 = test system: NCI-H226
NCI-H23 = test system: NCI-H23
NCI-H460 = test system: NCI-H460
NCI-H522 = test system: NCI-H522
NCI/ADR-RES = test system: NCI/ADR-RES
OVCAR-3 = test system: OVCAR-3
OVCAR-4 = test system: OVCAR-4
OVCAR-5 = test system: OVCAR-5
OVCAR-8 = test system: OVCAR-8
PC-3 = test system: PC-3
RPMI-8226 = test system: RPMI-8226
RXF 393 = test system: RXF 393
SF-268 = test system: SF-268
SF-295 = test system: SF-295
SF-539 = test system: SF-539
SK-MEL-28 = test system: SK-MEL-28
SK-MEL-2 = test system: SK-MEL-2
SK-MEL-5 = test system: SK-MEL-5
SK-OV-3 = test system: SK-OV-3
SN12C = test system: SN12C
SNB-19 = test system: SNB-19
SNB-75 = test system: SNB-75
SR = test system: SR
SW-620 = test system: SW-620
T47D = test system: T47D
TK-10 = test system: TK-10
U-251 = test system: U-251
UACC-257 = test system: UACC-257
UACC-62 = test system: UACC-62
UO-31 = test system: UO-31

In the case of `O=C(O)C(Cc1ccc(O)c([N+](=O)[O-])c1)N1C(=O)c2ccccc2C1=O` (stereo not drawn), the GI50 (786-0) is reported as > 100 µM (inactive), the GI50 (A498) is reported as > 100 µM (inactive) and the GI50 (A549) is reported as > 100 µM (inactive). For the same compound, the GI50 (ACHN) was > 100 µM (inactive), the GI50 (BT-549) was > 100 µM (inactive) and the GI50 (CAKI-1) was > 100 µM (inactive). For the same compound, the GI50 (CCRF-CEM) was > 100 µM (inactive), the GI50 (COLO 205) was > 100 µM (inactive) and the GI50 (DU-145) was > 100 µM (inactive). The GI50 (EKVX) was > 100 µM (inactive), the GI50 (HCT-116) was > 100 µM (inactive) and the GI50 (HCT-15) was greater than 100 µM. For the same compound, the GI50 (HL-60) was 18.6 µM (inactive), the GI50 (HOP-62) was > 100 µM (inactive) and the GI50 (HOP-92) was > 100 µM (inactive). For the same compound, the GI50 (HT-29) was > 100 µM (inactive), the GI50 (Hs-578T) was > 100 µM (inactive) and the GI50 (IGROV-1) was > 100 µM (inactive). The GI50 (K562) was > 100 µM (inactive), the GI50 (KM12) was > 100 µM (inactive) and the GI50 (LOX IMVI) was > 100 µM (inactive). For the same compound, the GI50 (M14) was > 100 µM (inactive), the GI50 (MCF7) was > 100 µM (inactive) and the GI50 (MDA-MB-231) was > 100 µM (inactive). For the same compound, the GI50 (MDA-MB-435) was > 100 µM (inactive), the GI50 (MDA-N) was > 100 µM (inactive) and the GI50 (MOLT-4) was > 100 µM (inactive). For the same compound, the GI50 (Malme-3M) was > 100 µM (inactive), the GI50 (NCI-H226) was > 100 µM (inactive) and the GI50 (NCI-H23) was > 100 µM (inactive). For the same compound, the GI50 (NCI-H460) was > 100 µM (inactive), the GI50 (NCI-H522) was > 100 µM (inactive) and the GI50 (NCI/ADR-RES) was > 100 µM (inactive). The GI50 (OVCAR-3) was > 100 µM (inactive), the GI50 (OVCAR-4) was > 100 µM (inactive) and the GI50 (OVCAR-5) was > 100 µM (inactive). The GI50 (OVCAR-8) was > 100 µM (inactive), the GI50 (PC-3) was > 100 µM (inactive) and the GI50 (RPMI-8226) was > 100 µM (inactive). The GI50 (RXF 393) was > 100 µM (inactive), the GI50 (SF-268) was > 100 µM (inactive) and the GI50 (SF-295) was > 100 µM (inactive). The GI50 (SF-539) was > 100 µM (inactive), the GI50 (SK-MEL-28) was > 100 µM (inactive) and the GI50 (SK-MEL-2) was > 100 µM (inactive). For the same compound, the GI50 (SK-MEL-5) was > 100 µM (inactive), the GI50 (SK-OV-3) was > 100 µM (inactive) and the GI50 (SN12C) was > 100 µM (inactive). The GI50 (SNB-19) was > 100 µM (inactive), the GI50 (SNB-75) was > 100 µM (inactive) and the GI50 (SR) was > 100 µM (inactive). The GI50 (SW-620) was > 100 µM (inactive), the GI50 (T47D) was > 100 µM (inactive) and the GI50 (TK-10) was > 100 µM (inactive). For the same compound, the GI50 (U-251) was > 100 µM (inactive), the GI50 (UACC-257) was > 100 µM (inactive) and the GI50 (UACC-62) was > 100 µM (inactive). For the same compound, the GI50 (UO-31) was > 100 µM (inactive).
